The values below come from the supplement of paper PMC10307832.

Holding throughout (test): relative viability (nuclei count vs DMSO), 5 days (fraction); higher = more cells survive
Compound in the assay “Bortezomib + Foretinib”: CC(C)C[C@H](NC(=O)[C@H](Cc1ccccc1)NC(=O)c1cnccn1)B(O)O [Bortezomib] + COc1cc2c(Oc3ccc(NC(=O)C4(C(=O)Nc5ccc(F)cc5)CC4)cc3F)ccnc2cc1OCCCN1CCOCC1 [Foretinib] (partner 0.25 µM)
An outline of the steps: (§1)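 Relative viability equals treated-well nuclei counts divided by vehicle-well nuclei counts. Counts came from 4× images of lung cancer cell lines grown in 1536-well plates for 5 days after pin-tool dosing on the day after seeding. Dosing used one drug alone or a fixed anchor-drug dose plus five library-drug doses (not always all listed) in √10 steps, and values are medians of duplicate plates.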

Compound in assay [1]: CC1=CC(=NN1)NC2=CC(=NC(=N2)/C=C/C3=CC=CC=C3)N4CCN(CC4)C + CC(C)C[C@H](NC(=O)[C@H](Cc1ccccc1)NC(=O)c1cnccn1)B(O)O [Bortezomib] (partner 0.002 µM)
The gist of the method:
as §1

Compound in assay [2]: CC1=CC(=NN1)NC2=CC(=NC(=N2)/C=C/C3=CC=CC=C3)N4CCN(CC4)C + C[C@]1(O)C[C@@H](c2nc(-c3ccc4ccc(-c5ccccc5)nc4c3)c3c(N)nccn32)C1 [Linsitinib] (partner 1 µM)
An outline of the steps: as §1

Compound in the assay “Obatoclax + OSI-027”: COC1=CC(c2cc3ccccc3[nH]2)=N/C1=C\c1[nH]c(C)cc1C [Obatoclax] + COc1cccc2cc(-c3nc([C@H]4CC[C@H](C(=O)O)CC4)n4ncnc(N)c34)[nH]c12 [OSI-027] (partner 0.5 µM)
An outline of the steps:
as §1

With NCI-H650, the relative viability stood at 1.08 in the assay with Bortezomib + Foretinib (first compound 0.000632 µM); 0.847 in the assay with Bortezomib + Foretinib (first compound 0.002 µM); 0.4 with Bortezomib + Foretinib (first compound 0.006325 µM); 0.173 with Bortezomib + Foretinib (first compound 0.02 µM); 0.839 in assay [1] (first compound 0.08 µM); 1.01 in assay [1] (first compound 0.253 µM). The relative viability amounted to 0.673 in assay [1] (first compound 0.8 µM); 0.364 in assay [1] (first compound 2.53 µM); 0.187 in assay [1] (first compound 8 µM); 0.674 in assay [2] (first compound 0.08 µM); 1.06 in assay [2] (first compound 0.253 µM); 0.777 in assay [2] (first compound 0.8 µM). Besides, the relative viability in assay [2] (first compound 2.53 µM) is 0.278; in assay [2] (first compound 8 µM), 0.202; with Obatoclax + OSI-027 (first compound 0.01 µM), 0.568; in the assay with Obatoclax + OSI-027 (first compound 0.03162 µM), 0.449; in the assay with Obatoclax + OSI-027 (first compound 0.3162 µM) it was 0.419; in the assay with Obatoclax + OSI-027 (first compound 1 µM) it was 0.274.
